Test results published in patent US9962388B2, “Pyrrolopyrimidine compounds used as TLR7 agonist” (priority 2014, dated 2018).
pEC50: −log10 of the molar value. Where two headings read alike, the source gives them in different places.

Legend:
[1] = test system: human peripheral blood mononuclear cells (PBMC); assay: Peripheral blood mononuclear cell assay (cytokine induction, CBA); assay type: cell-based; details: 24 h, human PBMC, 24 h; for minimal effective concentration: Homo sapiens, PBMC, read-out: INF-α MEC
Method: Peripheral Blood Mononuclear Cell Assay The purpose of this example is to determine the expression level of cytokines 24 h after stimulation to human peripheral blood mononuclear cells (PBMC) with the compounds. The cell supernatant was assayed without dilution and the levels of IFN-α and TNF-α were directly determined. The compound was firstly formulated into 20 mM DMSO stock solution and was gradient diluted with cell medium in 10-fold with the total number of 11 diluting points. The compounds in 9 diluting points (the highest concentration was 200 μmol/L) were added into 96-well plate with 50 μL in each well. Fresh human peripheral blood mononuclear cells were inoculated, with 150 μL in each well containing 450,000 cells. The cell culture plate was incubated in an incubator at 37° C., 5% CO2 for 24 h. After incubation, the culture plate was centrifuged at 1200 rpm for 5 min and the supernatant was collected and stored at −20° C. for determination. The determination of cytokine was performed using Cytometric Bead Array (CBA) of BD-Pharmingen on flow cytometer. Using the above determining method, the lowest drug concentration stimulating cytokine level which is over 3 times greater than the lowest detectable limit was designated as the MEC (Minimal Effective Concentration) value in the cytokine stimulating test.

Toll-like receptor 7 = Toll-like receptor 7 (Homo sapiens (Human), UniProt Q9NYK1); assay: Toll-like receptor 7 in vitro receptor binding activity screen (HEK-blue hTLR7 cell, alkaline phosphatase/Quanti-Blue readout); assay type: cell-based; details: HEK-blue hTLR7 cell, read-out: TLR7 EC50
Chain of Toll-like receptor 7 (Q9NYK1 27-1049): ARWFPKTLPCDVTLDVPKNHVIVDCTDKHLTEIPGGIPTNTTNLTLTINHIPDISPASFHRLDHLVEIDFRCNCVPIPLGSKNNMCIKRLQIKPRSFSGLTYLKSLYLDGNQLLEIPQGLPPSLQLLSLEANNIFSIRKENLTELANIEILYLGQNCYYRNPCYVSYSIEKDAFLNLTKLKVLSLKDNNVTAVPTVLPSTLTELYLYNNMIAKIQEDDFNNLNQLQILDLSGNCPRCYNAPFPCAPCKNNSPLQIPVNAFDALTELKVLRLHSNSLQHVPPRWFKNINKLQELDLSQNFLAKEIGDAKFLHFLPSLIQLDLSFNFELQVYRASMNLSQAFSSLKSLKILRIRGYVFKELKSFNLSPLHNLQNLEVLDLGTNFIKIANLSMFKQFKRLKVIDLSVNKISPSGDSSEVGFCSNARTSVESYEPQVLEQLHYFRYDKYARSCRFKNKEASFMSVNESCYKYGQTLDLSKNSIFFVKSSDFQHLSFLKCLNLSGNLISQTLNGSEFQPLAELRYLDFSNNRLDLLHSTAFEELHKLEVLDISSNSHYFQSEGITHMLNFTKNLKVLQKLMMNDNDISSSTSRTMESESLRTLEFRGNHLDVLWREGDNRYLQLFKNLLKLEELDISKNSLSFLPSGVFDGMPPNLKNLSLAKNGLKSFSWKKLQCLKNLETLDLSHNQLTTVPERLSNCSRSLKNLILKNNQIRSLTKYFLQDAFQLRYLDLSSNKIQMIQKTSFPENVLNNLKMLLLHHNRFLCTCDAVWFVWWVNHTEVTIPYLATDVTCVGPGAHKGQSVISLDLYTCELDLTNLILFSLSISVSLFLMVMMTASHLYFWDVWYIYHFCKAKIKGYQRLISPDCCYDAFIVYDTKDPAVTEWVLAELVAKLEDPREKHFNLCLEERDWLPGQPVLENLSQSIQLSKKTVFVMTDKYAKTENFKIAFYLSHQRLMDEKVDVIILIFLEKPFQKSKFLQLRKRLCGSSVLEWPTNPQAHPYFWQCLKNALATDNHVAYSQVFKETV
Method: (§1) Toll-Like Receptor 7 and Toll-Like Receptor 8 In Vitro Receptor Binding Activity Screen
(§2) HEK-blue hTLR7 cell and HEK-blue hTLR8 cell (available from InvivoGen)
(§3) 1. Preparation of 96-well compound plate:
(§4) The compounds were gradient diluted with DMSO in 3-fold using liquid work station POD starting at a concentration of 10 mmol/L and 10 points were diluted (2nd column to 11th column, and each point was duplicated). At 12th column, 1 μL of 5 mg/mL positive compound R848 was added as positive control; and at 1st column, 1 μL of DMSO was added as negative control. Each well contained 1 μL of DMSO.
(§5) 2. The cells in culture flask were collected and the cell density was diluted to 250,000 cells/mL.
(§6) 3. 200 μL (50,000 cells/well) of cell suspension was added into prepared compound plate and the final concentration of DMSO in each well was 0.5%.
(§7) 4. The culture plates containing cells and the compounds were incubated in CO2 incubator for 24 h at 37° C., 5% CO2.
(§8) 5. After 24 h incubation, 20 μL of supernatant was removed from each well to a 96-well transparent assay plate. To each well of the assay plate was added 180 μL of Quanti-Blue reagent and the plate was incubated in an incubator at 37° C., 5% CO2 for 1 h.
(§9) 6. After 1 h, the content of alkaline phosphatase in 20 μL of supernatant was determined using Microplate Reader OD650.
(§10) 7. EC50 of each compound was obtained with Prism software.

in vivo = details: male, SD, rat; for half-life: read-out: T½ (converted)
Method: 12 male SD rats were divided into 4 groups with 3 SD rats in each group. […] […] Each rat with oral administration was collected for whole blood samples which were prepared into plasma 15, 30 min and 1, 2, 4, 8, 24 h continuously after administration.

duck hepatitis b virus = assay: In vivo pharmacodynamics in duckling model infected with hepatitis B virus; design: species or system Beijing ducks
Method: In Vivo Pharmacodynamics in Duckling Model Infected with Hepatitis B Virus
Experimental design and procedures: Beijing ducks of 1 day old were intravenously administered duck hepatitis b virus positive duck serum. After 7 days, the animals were administered according to grouping, 6 ducks in each group. Control group: normal saline. […] The samples were administered intragastricly: 20 mg/kg groups were administered once every third day (one administration every 3 days) and 5 mg/kg groups were administered once every day for 16 days. […] For control group infected with duck hepatitis b virus, solvent was used instead of drug. 7 days after infection, the blood was collected before administration (TO),8 days after administration (T8),16 days after administration (T16) and 3 day after ceasing administration (P3), and the duck serum was separated and frozen for storage. […] Duck serum DNA (DHBV-DNA) determination: different duck sera in a batch were determined for duck blood DHBV-DNA level with real time fluorescent quantitative PCR. Statistics analysis: paired and grouped analysis was used to calculate the significance of inhibition of drug on duck serum DHBV-DNA for assessment.

Toll-like receptor 8 = Toll-like receptor 8 (Homo sapiens (Human), UniProt Q9NR97); assay: Toll-like receptor 8 in vitro receptor binding activity screen (HEK-blue hTLR8 cell, alkaline phosphatase/Quanti-Blue readout); assay type: cell-based; details: HEK-blue hTLR8 cell, head-to-head test; read-out: TLR8 EC50
Chain of Toll-like receptor 8 (Q9NR97 27-1041): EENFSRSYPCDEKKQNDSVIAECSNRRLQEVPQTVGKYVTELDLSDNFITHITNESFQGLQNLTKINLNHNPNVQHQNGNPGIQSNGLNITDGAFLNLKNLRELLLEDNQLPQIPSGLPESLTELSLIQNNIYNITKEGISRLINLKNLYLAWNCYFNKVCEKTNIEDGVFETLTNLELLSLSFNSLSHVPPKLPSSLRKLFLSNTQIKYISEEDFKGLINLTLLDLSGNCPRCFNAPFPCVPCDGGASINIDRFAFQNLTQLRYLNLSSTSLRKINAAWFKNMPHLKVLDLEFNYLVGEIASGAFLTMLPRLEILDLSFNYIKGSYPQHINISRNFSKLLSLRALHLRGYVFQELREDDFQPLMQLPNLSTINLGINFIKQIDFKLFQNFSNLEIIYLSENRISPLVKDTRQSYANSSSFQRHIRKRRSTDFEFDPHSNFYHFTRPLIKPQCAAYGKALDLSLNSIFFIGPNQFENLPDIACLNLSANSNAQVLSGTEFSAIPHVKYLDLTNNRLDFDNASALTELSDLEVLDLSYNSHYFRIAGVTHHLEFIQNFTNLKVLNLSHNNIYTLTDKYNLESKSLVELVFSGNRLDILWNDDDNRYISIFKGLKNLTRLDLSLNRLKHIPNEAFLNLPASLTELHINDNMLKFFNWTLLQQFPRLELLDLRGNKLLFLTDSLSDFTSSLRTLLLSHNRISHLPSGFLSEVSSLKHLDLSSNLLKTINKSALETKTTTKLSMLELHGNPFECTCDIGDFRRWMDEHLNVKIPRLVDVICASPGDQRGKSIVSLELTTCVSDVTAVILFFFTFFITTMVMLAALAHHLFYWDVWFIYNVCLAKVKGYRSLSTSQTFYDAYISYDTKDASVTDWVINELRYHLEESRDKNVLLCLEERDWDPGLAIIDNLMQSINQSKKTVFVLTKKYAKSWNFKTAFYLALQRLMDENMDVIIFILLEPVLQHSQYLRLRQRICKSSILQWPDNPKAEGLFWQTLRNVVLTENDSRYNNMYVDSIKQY
Method: as §1, §2, §3, §4, §5, §6, §7, §8, §9, §10

[2] = Minimal Effective Concentration

## CCCCOc1nc(N)c2[nH]cc(Cc3ccc4c(c3)CN(C)CC4)c2n1 [Example 29, 2-butoxy-7-((2-methyl-1,2,3,4-tetrahydroisoquinoline-7-yl)methyl)-5H-pyrrolo[3,2-d]pyrimidine-4-amine]
[1]; [2]
  minimal effective concentration: 1e-05 to 0.001 µM
Toll-like receptor 7; 24 h
  pEC50: 6.00 to 7.00

## CCCCOc1nc(N)c2[nH]cc(Cc3ccc4c(c3)CN(CC)CC4)c2n1 [Example 30, 2-butoxy-7-((2-ethyl-1,2,3,4-tetrahydroisoquinoline-7-yl)methyl)-5H-pyrrolo[3,2-d]pyrimidine-4-amine]
[1]; [2]
  minimal effective concentration: 0.001 to 0.01 µM
Toll-like receptor 7; 24 h
  pEC50: 6.00 to 7.00

## CCCCOc1nc(N)c2[nH]cc(Cc3ccc4c(c3)CN(C(C)C)CC4)c2n1 [Example 31, 2-butoxy-7-((2-isopropyl-1,2,3,4-tetrahydroisoquinoline-7-yl)methyl)-5H-pyrrolo[3,2-d]pyrimidine-4-amine]
[1]; [2]
  minimal effective concentration: 0.001 to 0.01 µM
Toll-like receptor 7; 24 h
  pEC50: 6.00 to 7.00

## CCCCOc1nc(N)c2[nH]c(C#N)c(Cc3ccc(CN4CCCC4)cc3)c2n1 [Example 42, 4-amino-2-butoxy-7-(4-(pyrrolidine-1-ylmethyl)benzyl)-5H-pyrrolo[3,2-d]pyrimidine-6-carbonitrile]
[1]; [2]
  minimal effective concentration: 1e-05 to 0.001 µM
Toll-like receptor 7; 24 h
  pEC50: 7.00 to 9.00

## CCCCOc1nc(N)c2c(n1)N(Cc1cccc(CN3CCCC3)c1)CC(=O)N2 [GS-9620, reference compound]
[1]; head-to-head test
  minimal effective concentration: 0.05 µM
  TNF-α MEC: 500 nM
In vivo; 1 mg/kg, IV 1 mpk
  half-life: 2.57 h
In vivo; 5 mg/kg, PO 5 mpk
  half-life: 2.24 h
In vivo; iv, 1 mg/kg
  AUC(0-inf): 0.201 µM·h
  AUC(0-t): 0.185 µM·h
  Cmax: 220 nM
  Vd: 32.8 L/kg
  clearance: 205 mL/min/kg
In vivo; iv, 1 mg/kg, 0.083 h
  Mean plasma drug concentration: 170 nM
In vivo; iv, 1 mg/kg, 0.25 h
  Mean plasma drug concentration: 102 nM
In vivo; iv, 1 mg/kg, 0.5 h
  Mean plasma drug concentration: 65.4 nM
In vivo; iv, 1 mg/kg, 1 h
  Mean plasma drug concentration: 48.1 nM
In vivo; iv, 1 mg/kg, 2 h
  Mean plasma drug concentration: 21.6 nM
In vivo; iv, 1 mg/kg, 4 h
  Mean plasma drug concentration: 13 nM
In vivo; iv, 1 mg/kg, 8 h
  Mean plasma drug concentration: 4.17 nM
In vivo; po, 5 mg/kg
  AUC(0-inf): 0.359 µM·h
  AUC(0-t): 0.316 µM·h
  Cmax: 164 nM
In vivo; po, 5 mg/kg, 0.25 h
  Mean plasma drug concentration: 56.3 nM
In vivo; po, 5 mg/kg, 0.5 h
  Mean plasma drug concentration: 33.2 nM
In vivo; po, 5 mg/kg, 1 h
  Mean plasma drug concentration: 83.4 nM
In vivo; po, 5 mg/kg, 2 h
  Mean plasma drug concentration: 136 nM
In vivo; po, 5 mg/kg, 4 h
  Mean plasma drug concentration: 16.7 nM
In vivo; po, 5 mg/kg, 8 h
  Mean plasma drug concentration: 9.49 nM
Duck hepatitis b virus; 5 mg/kg intragastric once every day for 16 days, P3
  Duck serum HBV-DNA inhibition %: 70.60 ± 47.66%
Duck hepatitis b virus; 5 mg/kg intragastric once every day for 16 days, T8
  Duck serum HBV-DNA inhibition %: 98.66 ± 2.75 %
Duck hepatitis b virus; 5 mg/kg intragastric once every day for 16 days, T16
  Duck serum HBV-DNA inhibition %: 78.02 ± 51.69%
Duck hepatitis b virus; 20 mg/kg intragastric once every third day, P3 (3 days after ceasing administration)
  Duck serum HBV-DNA inhibition %: −132.97 ± 352.35%
Duck hepatitis b virus; 20 mg/kg intragastric once every third day, T8 (8 days after administration)
  Duck serum HBV-DNA inhibition %: 99.13 ± 1.83 %
Duck hepatitis b virus; 20 mg/kg intragastric once every third day, T16 (16 days after administration)
  Duck serum HBV-DNA inhibition %: 98.26 ± 1.50 %
Duck hepatitis b virus; 20 mg/kg one administration every third day, 3 days after ceasing administration
  rebound of HBV-DNA replication: rebound of HBV-DNA replication
Toll-like receptor 8
  pEC50: 5.10
Toll-like receptor 7; head-to-head test
  pEC50: 6.29
